Laboratory results taken from US20260335282A1, “NOVEL 3-ARYLIDENE-2-INDOLINONE DERIVATIVES FOR THERAPEUTIC USE” (ISTANBUL UNIVERSITESI REKTORLUGU, priority 2022, published 2026).

Tested on: general tyrosine kinase activity in HCT116 colon cancer cells
Experiment: General tyrosine kinase activity (ELISA) in HCT-116 cells
Type: cell-based, human
Conditions: 72 hours, IC50 concentration
Description: Takara Universal Tyrosine Kinase Assay Kit is used to determine the effects of 11 2-indolinone compounds (Y1, Y2, Y3, Y4, Y5, Y8, […], […], Y21, Y23, 20C, 22C) on general tyrosine kinase activity in cancer cells. Cells are seeded in 6-well plates (4.10^5 cells/well) and the IC50 concentration of each selected molecule is performed to the cells for 48 or 72 hours. Cells in the control group are incubated with medium only. At the end of the incubation period, the cells in each well are washed with PBS and cells are removed from the wells using a cell scraper via 1 ml of the extraction buffer in the kit. The cell lysate is transferred to ependorf tubes and centrifuged at 10.000 g for 10 minutes at +4° C. and the supernatant is used as a sample for activity determination. […] The reaction is finished by adding 100 μl of stop solution to each well and the optical density in each well is measured at 405 nm with a microplate reader (BioTek, USA). The tyrosine kinase activity in each sample is calculated from the standard curve obtained from the absorbance values of the standard solutions with the kit (Chan W Y, Lau P M, Yeung K W, Kong S K. The second generation tyrosine kinase inhibitor dasatinib induced eryptosis in human erythrocytes—An in vitro study. Toxicol Lett. 2018; 295:10-21). […]

In the case of O=C1/C(=C\c2c[nH]c3ccccc23)c2cc(OC(F)(F)F)ccc2N1Cc1ccccc1 [Y4], the “tyrosine kinase activity compared to control” value was “did not cause a significant change”.
